Several values for one entry are separate records, joined by “and”; a condition that tells them apart may be missing. Equal values may be shown once.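 Cells were grown in 96-well plates and exposed to each compound for 48 hours at five concentrations; endpoints were interpolated linearly between bracketing concentrations, or set to the highest concentration if not reached. At the GI50, growth is halved. TGI denotes the concentration required for complete inhibition of growth.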
Columns and labels:
Assay in all cases: NCI anticancer screen, dose series, 48 h
[1] = test system: 786-0 renal
[2] = test system: CAKI-1 renal
[3] = test system: COLO 205 colon
[4] = test system: EKVX NSCLC
[5] = test system: HOP-62 NSCLC
[6] = test system: K-562 leukemia
[7] = test system: NCI-H460 lung
[8] = test system: OVCAR-3 ovarian
[9] = test system: SF-268 CNS
[10] = test system: SK-MEL-28 melanoma

SMILES | GI50 [1] | TGI [1] | GI50 [2] | TGI [2] | GI50 [3] | TGI [3] | GI50 [4] | TGI [4] | GI50 [5] | TGI [5] | GI50 [6] | TGI [6] [µM] | GI50 [7] | TGI [7] | GI50 [8] | TGI [8] | GI50 [9] | TGI [9] | GI50 [10] | TGI [10]
O=C(NCCc1nccs1)c1cnc2c(S)cccc2c1 | 5330 nM | 36 µM | 3220 nM | 37.4 µM | 1560 nM | 3.75 µM | 3.1 µM | 38.2 µM | 4130 nM | 20.9 µM | 980 nM | > 100 | 685 nM | 11.4 µM | 2470 nM | 9.21 µM | 3660 nM | 27.1 µM | 3.5 µM | > 100 µM
O=C(Nc1ccc(Br)cc1)c1cc(Br)ccc1O | 504 nM and 1400 nM | 2.84 µM and 4.74 µM | 333 nM and 1210 nM | 2.49 µM and 5.62 µM | 1660 nM and 1710 nM | 3.1 µM and 3.25 µM | 0.788 µM and 0.75 µM | 36.6 µM and > 20.1 µM | 791 nM and 1730 nM | 8.75 µM and 5.31 µM | 437 nM and 419 nM |  | 389 nM and 617 nM | 4.96 µM and 10.7 µM | 314 nM and 535 nM | 7.81 µM and 7.14 µM | 489 nM and 2050 nM | 26.6 µM and 13.4 µM | 0.314 µM and 1.44 µM | 2.17 µM and 5.14 µM
Nc1ncnc2c1ncn2C1OC(F)(COS(N)(=O)=O)C(O)C1O (stereo not drawn) | > 100000 nM | > 100 µM | > 100000 nM | > 100 µM | > 100000 nM | > 100 µM | > 100 µM | > 100 µM | > 100000 nM | > 100 µM | > 100000 nM | > 100 | > 100000 nM | > 100 µM | > 100000 nM | > 100 µM | > 100000 nM | > 100 µM | > 100 µM | > 100 µM
CN(C)Cc1nsc(N(C)C)n1 |  | > 100 µM |  | > 100 µM |  | > 100 µM |  | > 100 µM |  | > 100 µM |  | > 100 |  | > 100 µM |  | > 100 µM |  | > 100 µM |  | > 100 µM
COc1cccc2c1C(=O)c1c(O)c3c(c(O)c1C2=O)C[C@@](O)(C(=O)CO)C[C@@H]3OC1CC2C(OCN2CN2COC3C(C)OC(O[C@H]4C[C@](O)(C(=O)CO)Cc5c(O)c6c(c(O)c54)C(=O)c4c(OC)cccc4C6=O)CC32)C(C)O1 (stereo partly drawn) | 2.74 nM | 0.0343 µM | 0.878 nM | 0.00708 µM | 6.64 nM | 0.0216 µM | 0.0393 µM | > 1 µM | 6.09 nM | 0.103 µM | 4.02 nM |  | 0.207 nM | 0.0864 µM | 14.2 nM | 0.0534 µM | 2.58 nM | 0.0469 µM | 0.016 µM | 0.0378 µM
CC12CC(Br)(Br)C(=O)C3C1CCCC32 |  | 9.32 µM |  | 6.05 µM |  | 5.16 µM |  | 19.1 µM |  | 28.5 µM |  | 11.7 |  | 31.7 µM |  | 7.08 µM |  | 35.1 µM |  | 6.61 µM
CCOC(=O)N1C/C(=C\c2ccc(N(C)C)cc2)C(=O)/C(=C/c2ccc(N(C)C)cc2)C1 |  | > 100 µM |  | > 100 µM |  | > 100 µM |  | > 100 µM |  | > 100 µM |  | > 100 |  | > 100 µM |  | > 100 µM |  | > 100 µM |  | > 100 µM
CCOC(=O)c1c(C)n(Cc2ccc(Cl)cc2Cl)c2c1cc(O)c1[nH]c(Cc3ccccc3)nc12 | 3670 nM | 13.7 µM | 8290 nM | 26.8 µM | 5040 nM | 30.1 µM | 9.49 µM | 22.3 µM | 4610 nM | 19.4 µM | 2940 nM | 10.7 | 2710 nM | 6.65 µM | 2970 nM | 8.13 µM | 2590 nM | 6.21 µM | 13 µM | 27.7 µM
O=C(/C=C/c1cccc(Cl)c1)c1ccccc1 | 10600 nM | 22.8 µM | 2730 nM | 11.5 µM | 16800 nM | 31.7 µM | 14.8 µM | 29.3 µM | 15700 nM | 29.9 µM | 2860 nM | 18.9 | 4860 nM | 18 µM | 4090 nM | 15.4 µM | 11500 nM | 26.2 µM | 15.9 µM | 30.2 µM
Cc1cc(N)c2cc(NC(=O)/C=C\c3ccccc3Cl)ccc2n1 | 924 nM | 2.42 µM | 1770 nM | 3.24 µM | 266 nM | 0.597 µM | 1.53 µM | 3.1 µM | 725 nM | 1.73 µM | 416 nM | 1.48 | 1190 nM | 2.7 µM | 1310 nM | 2.7 µM | 1440 nM | 2.97 µM | 0.447 µM | 0.886 µM
COc1cc(/C=C2\CC3C4CC=C5C[C@@H](N6CCCC6)CC[C@]5(C)C4CC[C@]3(C)[C@H]2OC(C)=O)ccc1OCCCn1ccnc1 (stereo partly drawn) | 369 nM | 1.38 µM | 641 nM | 2.63 µM | 104 nM | > 50 µM | 1.28 µM | 9.12 µM | 435 nM | 1.08 µM | 119 nM | 0.36 | 531 nM | > 19.2 µM | 275 nM | 0.777 µM | 3870 nM | > 29.2 µM | 0.157 µM | > 50 µM
CCc1n(Cc2ccc3ccccc3c2)cc[n+]1Cc1ccc2ccccc2c1 | 1520 nM | 3.04 µM | 12400 nM | 25.5 µM | 376 nM | 1.73 µM | 0.766 µM | 5.55 µM | 1420 nM | 3.65 µM | 404 nM | 2.27 | 724 nM | 2.15 µM | 466 nM | 1.74 µM | 817 nM | 2.42 µM | 0.581 µM | 2.06 µM
N#C/C(=C\c1ccccn1)c1nc2ccccc2o1 | 35300 nM | > 100 µM | 35100 nM | > 100 µM | 44900 nM | > 100 µM | 24.2 µM | > 100 µM | > 100000 nM | > 100 µM | 28600 nM | > 100 | 31700 nM | > 100 µM | 29700 nM | > 100 µM | 31300 nM | > 100 µM | 20.7 µM | 45 µM
CC1=C(C(=O)Nc2cc(F)c(F)cc2F)C(c2ccc(N(C)C)cc2)C(C(=O)Nc2cc(F)c(F)cc2F)=C(C)N1 |  | > 100 µM |  | > 67.7 µM |  | > 100 µM |  | 75.6 µM |  | > 100 µM |  | > 100 |  | > 100 µM |  | 49.7 µM |  | > 100 µM |  | > 100 µM
O=C1C2C3C=CC(C2C(=O)N1CN1CCOCC1)C1C2C(=O)N(CN4CCOCC4)C(=O)C2C31 (stereo not drawn) |  | > 60.9 µM |  | > 100 µM |  | > 56.9 µM |  | > 100 µM |  | > 100 µM |  | > 79.3 |  | > 57.5 µM |  | > 77.8 µM |  | > 64 µM |  | > 66 µM
COc1ccc(C)cc1-c1ccc(-c2cc(C)ccc2OC)o1 |  | > 100 µM |  | > 100 µM |  | > 100 µM |  | > 100 µM |  | > 100 µM |  | > 100 |  | > 100 µM |  | > 100 µM |  | > 100 µM |  | > 100 µM
Cc1ccc(S(=O)(=O)NC(=O)Nc2ncn[nH]2)cc1 |  | > 100 µM |  | > 100 µM |  | > 100 µM |  | > 100 µM |  | > 100 µM |  | > 100 |  | > 100 µM |  | > 100 µM |  | > 100 µM |  | > 100 µM
C=CCC(NCc1ccccc1)c1cn(C(=O)OCC)c2ccccc12 (stereo not drawn) | 18700 nM | 38.8 µM | 18500 nM | 41.6 µM | 28000 nM | > 100 µM | 20.7 µM | 55.4 µM | 24600 nM | 64.6 µM | 2370 nM | 15 | > 100000 nM | > 100 µM | 17300 nM | 33.7 µM | > 100000 nM | > 100 µM | 41.5 µM | > 100 µM
CN(C)c1ccc(-c2nc(N)nc3c2CCCC3)cc1 |  | > 100 µM |  | > 100 µM |  | > 100 µM |  | 98.6 µM |  | > 100 µM |  | > 100 |  | > 100 µM |  | 96.7 µM |  | > 100 µM |  | > 100 µM
COc1ccc(C(=O)c2no[n+]([O-])c2C(=O)c2ccc(OC)cc2)cc1 | 2620 nM | 6.32 µM | 1900 nM | 4 µM | 1770 nM | 3.37 µM | 7.54 µM | 22.5 µM | 15200 nM | 29.3 µM | 2360 nM | 7.17 | 17200 nM | 33.5 µM | 1870 nM | 3.31 µM | 3110 nM | 7.98 µM | 9.03 µM | 22.1 µM
O=C1C[C@@H]2[C@@H](C=CC23CCCC3)N1O |  | > 100 µM |  | > 100 µM |  | > 100 µM |  | > 100 µM |  | > 100 µM |  | > 100 |  | > 100 µM |  | > 100 µM |  | > 100 µM |  | > 100 µM

Source: PubChem BioAssay (NCI)
